The subject of one assay is Trichoderma viride. The assay is described as follows: Test for wood rotting-preventing effect (mycelium growth inhibition on malt extract agar). Format: cell-based. As to conditions: 28° C.±2° C., 2 to 10 days, read-out: Rotting preventing effect (mycelium growth-inhibitory rate), TRV. The procedure, abridged: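 Mycelial agar disks (4 mm) placed on malt extract agar containing 50 ppm test compound and cultured at 28 °C ± 2 °C. Colony diameter measured 2–10 days after inoculation; growth-inhibitory rate (%) reported as symbol grades.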

In another assay the test system is Rhizopus nigricans. The assay is described as above. Format: cell-based. The following applies: Rhizopus stolonifer, 28° C.±2° C., 2 to 10 days, read-out: Rotting preventing effect (mycelium growth-inhibitory rate), RHN. The procedure, abridged: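 Mycelial agar disks (4 mm) placed on malt extract agar containing 50 ppm test compound and grown at 28 °C ± 2 °C. Colony diameter measured 2-10 days after inoculation; mycelium growth-inhibitory rate (%) reported as a symbol score.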

The subject of assay [1] is Gibberella fujikuroi ("Bakanae" disease of rice). Put plainly: Test for rice seed-disinfecting effect. The following applies: Fusarium fujikuroi, 504 h, seed immersion 25° C. 24 hours, three weeks after treatment, read-out: Controlling effect (control of disease), "Bakanae" disease of rice. Format: in vivo. The procedure, abridged:
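Bakanae-infected unhulled rice seed soaked 24 hours at 25° C in 1000 ppm compound, then sown and germinated two days. Infected-seedling rate scored three weeks after treatment; control calculated against untreated plot and graded on a standard scale.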

Assay [2] has as its system Trichophyton mentagrophytes IFO 5810. The assay is described as follows: In vitro antimicrobial activity on Trichophyton mentagrophytes. Format: cell-based. Also on record: key: A: Fungus is not observed at all with the naked eye.; B: Presence of fungus is slightly observed on shaking the test tube.; C: Fungus of about less than one-fourth that of the DMSO control group is observed with the naked eye.; Fungus of about less than half that of the DMSO control group is observed with the naked eye. As to conditions: 10 (ppm); SGB, 27° C., 7 days. As for the experimental part: 3-3 In vitro antimicrobial activity on Trichophyton mentagrophytes To Trichophyton mentagrophytes IFO 5810 precultured at 27° C. for 2 to 3 weeks on a Sabouraud's glucose agar (SGA) slant medium was added a sterilized physiological salt solution containing 0.1% (W/V) Tween 80. After conidia were made free from the solution, the solution was filtered through a sterilized two-sheet gauze to remove the mycelium mass. The number of the conidia in the resulting suspension was counted with a globulimeter and adjusted so as to be 1×10^6 conidia/ml with a sterilized physiological salt solution containing 0.1%(W/V) Tween 80. This solution was used as an inoculum solution. Thereafter, 0.1 ml of this solution and 0.1 ml of the dimethyl sulfoxide (DMSO) solution of the test compound were added to 9.8 ml of Sabouraud's glucose broth (SGB), and shake-cultured at 27° C. for 7 days.

On to `CS(=O)(=O)c1snc(OCC#CI)c1C#N` [Compound 41, 3-(3-iodo-2-propynyloxy)-4-cyano-5-methylsulfonylisothiazole], for which the inhibition at 50 ppm with Trichoderma viride and in the assay with Rhizopus nigricans was 95 to 100% each time. For the same molecule, in assay [1], the pest or weed control at 1000 ppm fell in the range of 95 to 100%. The “Antimycotic activity (degree of growth, naked eye), T.mentagrophytes” value (“Antimycotic activity” below) in assay [2] was “A”.
Turning to `N#Cc1c(OCC#CI)nsc1S(=O)(=O)C(F)F` [Compound 43], the inhibition at 50 ppm with Trichoderma viride and in the assay on Rhizopus nigricans was 95 to 100% throughout. Also, the pest or weed control at 1000 ppm in assay [1] fell in the range of 95 to 100%. The “Antimycotic activity” value in assay [2] is recorded as “A”.
Take `CSc1snc(OC(C)OCC#CI)c1C#N` (stereo not shown) [Compound 119]: the figures for the inhibition at 50 ppm in the assay with Trichoderma viride and in the assay with Rhizopus nigricans were 95 to 100% and 80 to 94%, respectively. Moreover, in assay [1], the pest or weed control at 1000 ppm is 95 to 100%. Besides, in assay [2], the “Antimycotic activity” value is “A”.
With `N#Cc1c(OC(F)F)nsc1OCCC#CI` [Compound 82], the inhibition at 50 ppm with Trichoderma viride and with Rhizopus nigricans was 95 to 100% throughout. Moreover, the pest or weed control at 1000 ppm in assay [1] was in the range of 95 to 100%. Also, the “Antimycotic activity” value in assay [2] is recorded as “A”.
Consider `CCOc1snc(OCOCC#CI)c1C#N` [Compound 96], for which the inhibition at 50 ppm in the assay with Trichoderma viride and in the assay on Rhizopus nigricans was 95 to 100% in each case. Also, the pest or weed control at 1000 ppm in assay [1] lay within 95 to 100%. Besides, in assay [2], the “Antimycotic activity” value is “A”.
As to `COc1nsc(OCC#CI)c1C#N` [Compound 48], the inhibition at 50 ppm in the assay on Trichoderma viride and in the assay on Rhizopus nigricans was 95 to 100% each time. Further, in assay [1], the pest or weed control at 1000 ppm was in the range of 95 to 100%. The “Antimycotic activity” value in assay [2] is given as “A”.
For `CSc1snc(OCC#CI)c1C#N` [Compound 1, 3-(3-iodo-2-propynyloxy)-4-cyano-5-methylthioisothiazole], the inhibition at 50 ppm with Trichoderma viride and with Rhizopus nigricans was 95 to 100% each time. The pest or weed control at 1000 ppm in assay [1] is 95 to 100%. Further, the “Antimycotic activity” value in assay [2] is given as “A”.
Regarding `COc1snc(OCC#CI)c1C#N` [Compound 21, 3-(3-iodo-2-propynyloxy)-4-cyano-5-methoxyisothiazole], the inhibition at 50 ppm with Trichoderma viride and in the assay with Rhizopus nigricans was 95 to 100% throughout. In addition, in assay [1], the pest or weed control at 1000 ppm lay within 95 to 100%. Further, in assay [2], the “Antimycotic activity” value is reported as “A”.
In the case of `CC(C)Oc1snc(OCC#CI)c1C#N` [Compound 23], the inhibition at 50 ppm with Trichoderma viride and in the assay on Rhizopus nigricans was 95 to 100% each time. Moreover, in assay [1], the pest or weed control at 1000 ppm lay within 95 to 100%. The “Antimycotic activity” value in assay [2] is “A”.
Regarding `CN(C)c1snc(OCC#CI)c1C#N` [Compound 30, 3-(3-iodo-2-propynyloxy)-4-cyano-5-dimethylaminoisothiazole], the inhibition at 50 ppm with Trichoderma viride and in the assay with Rhizopus nigricans was 95 to 100% each time. For the same molecule, the pest or weed control at 1000 ppm in assay [1] lay in the range of 95 to 100%. Also, the “Antimycotic activity” value in assay [2] was “A”.
Consider `N#Cc1c(OC(F)F)nsc1SCOCC#CI` [Compound 60], for which the inhibition at 50 ppm in the assay on Trichoderma viride and in the assay on Rhizopus nigricans was 95 to 100% throughout. For the same molecule, the pest or weed control at 1000 ppm in assay [1] fell in the range of 95 to 100%. Moreover, in assay [2], the “Antimycotic activity” value is reported as “A”.
Regarding `CSc1nsc(SCOCC#CI)c1C#N` [Compound 136], the inhibition at 50 ppm in the assay with Trichoderma viride and in the assay with Rhizopus nigricans was 95 to 100% in each case. In addition, the pest or weed control at 1000 ppm in assay [1] is 80 to 94%. The “Antimycotic activity” value in assay [2] is on record as “A”.
In the case of `CSc1snc(OCCC#CI)c1C#N` [Compound 70], the inhibition at 50 ppm with Trichoderma viride was 95 to 100%; with Rhizopus nigricans it was 80 to 94%. Further, the pest or weed control at 1000 ppm in assay [1] was in the range of 80 to 94%. Besides, in assay [2], the “Antimycotic activity” value is “A”.
For the molecule `N#Cc1c(OCOCC#CI)nsc1SC(F)F` [Compound 90], the inhibition at 50 ppm in the assay on Trichoderma viride and in the assay with Rhizopus nigricans was 95 to 100% throughout. Moreover, the pest or weed control at 1000 ppm in assay [1] lay in the range of 95 to 100%. Further, the “Antimycotic activity” value in assay [2] is “A”.
Consider `N#Cc1c(OCC#CI)nsc1SC(F)F` [Compound 12, 3-(3-iodo-2-propynyloxy)-4-cyano-5-difluoromethylthioisothiazole], for which the inhibition at 50 ppm in the assay on Trichoderma viride and in the assay on Rhizopus nigricans was 95 to 100% throughout. Moreover, in assay [1], the pest or weed control at 1000 ppm was in the range of 95 to 100%. Moreover, the “Antimycotic activity” value in assay [2] is “A”.
With `CCOc1nsc(SCOCC#CI)c1C#N` [Compound 54], the inhibition at 50 ppm in the assay with Trichoderma viride and in the assay with Rhizopus nigricans was 95 to 100% each time. In addition, in assay [1], the pest or weed control at 1000 ppm lay within 95 to 100%. The “Antimycotic activity” value in assay [2] was “A”.

These data come from patent US5578622A, “Isothiazole derivatives and their uses” (Asamura Patent Office, priority 1994, dated 1996).
